Data on one molecule can be found in patent publication US8552161B2, “Saponin compounds, methods of preparation thereof, use thereof and pharmaceutical compositions” (Uniwersytet W Bialymstoku, priority 2009, dated 2013).

For assay [1], the system named is normal human fibroblasts BJ. In words: Calcein AM cytotoxicity assay, normal fibroblasts BJ. The format is cell-based. To be noted: 72 h, means ± SD, three independent experiments in triplicate.
Another assay relates to CEM cells. In words: Flow cytometry cell cycle and apoptosis (subG1) analysis. In kind it is cell-based. On the procedure:
The leukemia cancer CEM cells were trypsinized, seeded in 6 well plates, and immediately incubated with the respective compounds. […] Triton X-100, and 50 μg/ml propidium iodide in PBS. DNA content was assessed with a flow cytometer (Cell Lab Quanta SC—MPL, Beckman Coulter, Calif., USA). In a histogram analysis, distribution of cells into the subG1 (“apoptotic cells”), the G0/G1, S and the G2/M peak was quantified using software MultiCycle AV (Phoenix Flow Systems, CA, USA).
Background: A flow cytometer gives signals particle by particle.

In assay [2] the test system is lung carcinoma cell line A549. In words: Calcein AM cytotoxicity assay, A549. The format is cell-based, human. To be noted: 72 h, means ± SD, three independent experiments in triplicate, read-out: IC50, A 549.
The subject of assay [3] is breast carcinoma cell line MCF7. Nature of the assay: Calcein AM cytotoxicity assay, MCF7. In kind it is cell-based, human. Particulars: Calcein AM assay, 72 h; means ± SD, three independent experiments in triplicate.
In a further assay the test system is caspase-3/7 in CEM cells. In words: Activity of caspases-3/7 in treated CEM cells (Ac-DEVD-AMC substrate). In kind it is cell-based. Particulars: 24 h, 7.5 μM and 10 μM (FIG. 4). The protocol: The CEM cells treated with the novel compounds were harvested by centrifugations and homogenized in an extraction buffer (10 mM KCl, 5 mM HEPES, 1 mM EDTA, 1 mM EGTA, 0.2% CHAPS, inhibitors of proteases, pH 7.4) on ice for 20 min. The homogenates were clarified by centrifugation at 10,000 g for […] at 4° C., the proteins were quantified by the Bradford method and diluted to the same concentration. Lysates were then incubated for 1 h with […] Ac-DEVD-AMC as a substrate (Sigma-Aldrich) in an assay buffer (25 mM PIPES, 2 mM EGTA, 2 mM MgCl2, 5 mM DTT, pH 7.3). For negative controls, the lysates were supplemented with […] Ac-DEVD-CHO as a caspase-3/7 inhibitor (Sigma-Aldrich). The fluorescence of the product was measured using a Fluoroskan Ascent microplate reader (Labsystems) at 346/442 nm (ex/em). Here, we determined the activity of caspase-3/7 in CEM cells exposed to 3, 6 or 7 using a fluorogenic substrate Ac-DEVD-AMC and/or caspase 3/7 inhibitor […]. Cells were treated in a dose-dependent manner with compounds 3 (1; 2.5; 5 μM), 6 (0.1; 0.25; 0.5 μM) and 7 (5; 7.5; 10 μM).

Assay [4] deals with T-lymphoblastic leukemia cell line CEM. In words: Calcein AM cytotoxicity assay, CEM. Particulars: Calcein AM assay, 72 h; means ± SD, three independent experiments in triplicate. The format is cell-based.

The structures appear in SMILES notation.

A word on the IC50: it is the point on the concentration scale where inhibition reaches its midpoint. As for `C/C=C/C(=O)OC[C@@H](C)[C@@]1(O)[C@@H](O[C@@H]2OC[C@H](O)[C@H](O[C@@H]3OC[C@@H](O)[C@H](O)[C@H]3OC(=O)c3ccc(OC)cc3)[C@H]2OC(C)=O)C[C@H]2[C@@H]3CC=C4C[C@@H](O)CC[C@]4(C)[C@H]3CC[C@@]21C` [Compound 7, (20R)-21-O-[(E)-but-2-enoyl]-20-methylpregn-5-ene-3β,16β,17α,21-tetraol 16-O-{2-O-(4-methoxybenzoyl)-β-D-xylopyranosyl-(1→3)-2′-O-acetyl-α-L-arabinopyranoside}], the IC50 in assay [1] is 230 ± 80 nM; in assay [2], 550 ± 200 nM; in assay [3] it was 840 ± 510 nM; in assay [4] it was 340 ± 40 nM. The “subG1 phase of the cell cycle (apoptotic cells)” value with CEM cells (CEM cell line after treatment) is “increase in subG1 phase”. For the same molecule, the “amount of debris (subG1) compared with untreated controls” value in the assay on CEM cells (CEM cells, 24 h (FIG. 3)) was found to be 3 fold. Also, in the assay on CEM cells (CEM cells, increasing concentrations), the “distribution of CEM cells in cell cycle phases (FIG. 2)” value was “increased the number of S-phase and G2/M cells with concomitant decrease of G0/G1 cells in dose-dependent manner”. For the same molecule, in the assay with CEM cells (CEM, 24 h, 3 μM), the “Apoptosis subG1” value stood at 15%. Moreover, the “Cell cycle distribution G0/G1” value in the assay on CEM cells (CEM, 24 h, 3 μM) is listed as 14%. In addition, in the assay on CEM cells (CEM, 24 h, 3 μM), the “Cell cycle distribution G2/M” value amounted to 30%. Moreover, the “Cell cycle distribution S” value in the assay on CEM cells (CEM, 24 h, 3 μM) was determined as 41%. Further, the “activity of caspase-3/7 compared with the untreated control” value in the assay on caspase-3/7 in CEM cells is given as “threefold increase”.
